Among the data in US9931327B2, “Derivatives of 1-phenyl-2-pyridinyl alkyl alcohols as phosphodiesterase inhibitors” (Chiesi Farmaceutici S.p.A., priority 2011, dated 2018) are IC50 values, retold here.

The structures appear in SMILES notation.

This test relates to LPS-induced TNF-α release in peripheral blood mononuclear cells (PBMCs). As to the kind of experiment: In vitro determination of PDE4 inhibitory activity in the PBMCs assay (LPS-induced TNF-α release). The following applies: PBMC; human PBMCs, LPS 3 ng/ml, 18 hours, TNF-α by ELISA; read-out: PDE4 inhibition (IC50, 50% inhibition of LPS-induced TNF-α release). Format: cell-based, human. An outline of the steps: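 Cryopreserved human PBMCs (10^5 cells/well) pre-incubated 30 min with compound (10^−12 to 10^−6 M or 10^−3 to 10^−7 M), then stimulated with LPS 3 ng/ml for 18 h at 37 °C. TNF-α in medium by ELISA; IC50 as mean ± 95% confidence limits.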
Background: In an ELISA, binding on a coated surface is turned into a signal by an enzyme label.
The IC50 is the point on the concentration scale where inhibition reaches its midpoint. For the compound `CS(=O)(=O)c1ccc(S(=O)(=O)N2CCS[C@H]2C(=O)O[C@@H](Cc2c(Cl)c[n+]([O-])cc2Cl)c2ccc(OC(F)F)c(OCC3CC3)c2)cc1` [Compound 109, 3,5-dichloro-4-((S)-2-(3-(cyclopropylmethoxy)-4-(difluoromethoxy)phenyl)-2-((S)-3-(4-(methylsulfonyl)phenylsulfonyl)thiazolidine-2-carbonyloxy)ethyl)pyridine 1-oxide], the half-maximal inhibitory concentration (IC50) was less than 100 pM.
In the case of `Nc1ccc(S(=O)(=O)N2CCN(CC(=O)O[C@@H](Cc3c(Cl)c[n+]([O-])cc3Cl)c3ccc(OC(F)F)c(OCC4CC4)c3)CC2)cc1` [Compound 141, (S)-4-(2-(2-(4-(4-aminophenylsulfonyl)piperazin-1-yl)acetoxy)-2-(3-(cyclopropylmethoxy)-4-(difluoromethoxy)phenyl)ethyl)-3,5-dichloropyridine 1-oxide], the 50% inhibitory concentration (IC50) is 100 to 1000 pM.
Regarding `CN1CCOc2ccc(S(=O)(=O)N3CCC[C@H]3C(=O)O[C@@H](Cc3c(Cl)c[n+]([O-])cc3Cl)c3ccc(OC(F)F)c(OCC4CC4)c3)cc21` [Compound 250, 3,5-dichloro-4-((S)-2-(3-(cyclopropylmethoxy)-4-(difluoromethoxy)phenyl)-2-((S)-1-(4-methyl-3,4-dihydro-2H-benzo[b][1,4]oxazin-6-ylsulfonyl)pyrrolidine-2-carbonyloxy)ethyl)pyridine 1-oxide], the IC50 is less than 100 pM.
The same measure for `O=C(O[C@@H](Cc1c(Cl)c[n+]([O-])cc1Cl)c1ccc(OC(F)F)c(OCC2CC2)c1)[C@@H]1SCCN1S(=O)(=O)c1c[nH]c(C(=O)N2CCCC2)c1` [Compound 242, 3,5-dichloro-4-((S)-2-(3-(cyclopropylmethoxy)-4-(difluoromethoxy)phenyl)-2-((S)-3-(5-(pyrrolidine-1-carbonyl)-1H-pyrrol-3-ylsulfonyl)thiazolidine-2-carbonyloxy)ethyl)pyridine 1-oxide]: less than 100 pM; for `O=C(O[C@@H](Cc1c(Cl)c[n+]([O-])cc1Cl)c1ccc(OC(F)F)c(OCC2CC2)c1)[C@@H]1SCCN1C(=O)c1ccc(CN2CCS(=O)(=O)CC2)cc1` [Compound 40, 3,5-dichloro-4-((S)-2-(3-(cyclopropylmethoxy)-4-(difluoromethoxy)phenyl)-2-((S)-3-(4-(1,1-dioxothiomorpholinomethyl)benzoyl)thiazolidine-2-carbonyloxy)ethyl)pyridine 1-oxide]: 100 to 1000 pM; for `CN1CCOc2ccc(S(=O)(=O)N3CCS[C@H]3C(=O)O[C@@H](Cc3c(Cl)c[n+]([O-])cc3Cl)c3ccc(OC(F)F)c(OCC4CC4)c3)cc21` [Compound 108, 3,5-dichloro-4-((S)-2-(3-(cyclopropylmethoxy)-4-(difluoromethoxy)phenyl)-2-((S)-3-(4-methyl-3,4-dihydro-2H-benzo[b][1,4]oxazin-6-ylsulfonyl)thiazolidine-2-carbonyloxy)ethyl)pyridine 1-oxide]: 100 to 1000 pM.
For `Cn1ccnc1S(=O)(=O)N1CCC[C@H]1C(=O)O[C@@H](Cc1c(Cl)c[n+]([O-])cc1Cl)c1ccc(OC(F)F)c(OCC2CC2)c1` [Compound 155, 3,5-dichloro-4-((S)-2-(3-(cyclopropylmethoxy)-4-(difluoromethoxy)phenyl)-2-((S)-1-(1-methyl-1H-imidazol-2-ylsulfonyl)pyrrolidine-2-carbonyloxy)ethyl)pyridine 1-oxide], the IC50 was less than 100 pM.
On to `COC(=O)c1ccc(S(=O)(=O)N2CCSC2C(=O)O[C@@H](Cc2c(Cl)c[n+]([O-])cc2Cl)c2ccc(OC(F)F)c(OCC3CC3)c2)s1` (stereo partly drawn) [Compound 87, 3,5-dichloro-4-((2S)-2-(3-(cyclopropylmethoxy)-4-(difluoromethoxy)phenyl)-2-(3-(5-(methoxycarbonyl)thiophen-2-ylsulfonyl)thiazolidine-2-carbonyloxy)ethyl)pyridine 1-oxide], for which the concentration for half-maximal inhibition (IC50) was 100 to 1000 pM.
The same measure for `CN(C)C(=O)c1cccc(S(=O)(=O)N2CCS[C@H]2C(=O)O[C@@H](Cc2c(Cl)c[n+]([O-])cc2Cl)c2ccc(OC(F)F)c(OCC3CC3)c2)c1` [Compound 52, 3,5-dichloro-4-((S)-2-(3-(cyclopropylmethoxy)-4-(difluoromethoxy)phenyl)-2-((S)-3-(3-(dimethylcarbamoyl)phenylsulfonyl)thiazolidine-2-carbonyloxy)ethyl)pyridine 1-oxide]: less than 100 pM.
As for `O=C(O[C@@H](Cc1c(Cl)c[n+]([O-])cc1Cl)c1ccc(OC(F)F)c(OCC2CC2)c1)C1SCCN1S(=O)(=O)c1cccs1` (stereo partly drawn) [Compound 62, 3,5-dichloro-4-((2S)-2-(3-(cyclopropylmethoxy)-4-(difluoromethoxy)phenyl)-2-(3-(thiophen-2-ylsulfonyl)thiazolidine-2-carbonyloxy)ethyl)pyridine 1-oxide], the figure is 100 to 1000 pM.
As to `COc1ccc(S(=O)(=O)N2CCSC2C(=O)O[C@@H](Cc2c(Cl)c[n+]([O-])cc2Cl)c2ccc(OC(F)F)c(OCC3CC3)c2)cc1N` (stereo partly drawn) [Compound 137, 4-((2S)-2-(3-(3-amino-4-methoxyphenylsulfonyl)thiazolidine-2-carbonyloxy)-2-(3-(cyclopropylmethoxy)-4-(difluoromethoxy)phenyl)ethyl)-3,5-dichloropyridine 1-oxide], the IC50 lay within 100 to 1000 pM.
The same measure for `O=C(O[C@@H](Cc1c(Cl)c[n+]([O-])cc1Cl)c1ccc(OC(F)F)c(OCC2CC2)c1)[C@@H]1SCCN1S(=O)(=O)c1ccc(N2CCOCC2)nc1` [Compound 105, 3,5-dichloro-4-((S)-2-(3-(cyclopropylmethoxy)-4-(difluoromethoxy)phenyl)-2-((S)-3-(6-morpholinopyridin-3-ylsulfonyl)thiazolidine-2-carbonyloxy)ethyl)pyridine 1-oxide]: 100 to 1000 pM; for `O=C(O[C@@H](Cc1c(Cl)c[n+]([O-])cc1Cl)c1ccc(OC(F)F)c(OCC2CC2)c1)[C@@H]1SCCN1S(=O)(=O)c1ccccc1` [Compound 89, 3,5-dichloro-4-((S)-2-(3-(cyclopropylmethoxy)-4-(difluoromethoxy)phenyl)-2-((S)-3-(phenylsulfonyl)thiazolidine-2-carbonyloxy)ethyl)pyridine 1-oxide]: 100 to 1000 pM; for `CN(C)C(=O)c1cccc(S(=O)(=O)N2CCS[C@H]2C(=O)O[C@@H](Cc2c(Cl)c[n+]([O-])cc2Cl)c2ccc(OC(F)F)c(O)c2)c1` [Compound 263, 3,5-dichloro-4-((S)-2-(4-(difluoromethoxy)-3-hydroxyphenyl)-2-((S)-3-(3-(dimethylcarbamoyl)phenylsulfonyl)thiazolidine-2-carbonyloxy)ethyl)pyridine 1-oxide]: 1000 to 10000 pM.
The same measure for `COc1cccc(S(=O)(=O)N2CCS[C@H]2C(=O)O[C@@H](Cc2c(Cl)c[n+]([O-])cc2Cl)c2ccc(OC(F)F)c(OCC3CC3)c2)c1` [Compound 103, 3,5-dichloro-4-((S)-2-(3-(cyclopropylmethoxy)-4-(difluoromethoxy)phenyl)-2-((S)-3-(3-methoxyphenylsulfonyl)thiazolidine-2-carbonyloxy)ethyl)pyridine 1-oxide]: 100 to 1000 pM; for `CN1CCN(CCS(=O)(=O)N2CCS[C@H]2C(=O)O[C@@H](Cc2c(Cl)c[n+]([O-])cc2Cl)c2ccc(OC(F)F)c(OCC3CC3)c2)CC1` [Compound 288, 3,5-dichloro-4-((S)-2-(3-(cyclopropylmethoxy)-4-(difluoromethoxy)phenyl)-2-((S)-3-(2-(4-methylpiperazin-1-yl)ethylsulfonyl)thiazolidine-2-carbonyloxy)ethyl)pyridine 1-oxide]: 100 to 1000 pM.
Turning to `CNS(=O)(=O)c1cccc(S(=O)(=O)N2CCSC2C(=O)O[C@@H](Cc2c(Cl)c[n+]([O-])cc2Cl)c2ccc(OC(F)F)c(OCC3CC3)c2)c1` (stereo partly drawn) [Compound 118, 3,5-dichloro-4-((2S)-2-(3-(cyclopropylmethoxy)-4-(difluoromethoxy)phenyl)-2-(3-(3-(N-methylsulfamoyl)phenylsulfonyl)thiazolidine-2-carbonyloxy)ethyl)pyridine 1-oxide], the IC50 is less than 100 pM.
The same measure for `O=C(O[C@@H](Cc1c(Cl)c[n+]([O-])cc1Cl)c1ccc(OC(F)F)c(OCC2CC2)c1)[C@@H]1CCCCN1S(=O)(=O)c1ccccc1` [Compound 114, 3,5-dichloro-4-((S)-2-(3-(cyclopropylmethoxy)-4-(difluoromethoxy)phenyl)-2-((S)-1-(phenylsulfonyl)piperidine-2-carbonyloxy)ethyl)pyridine 1-oxide]: 100 to 1000 pM; for `O=C(O[C@@H](Cc1c(Cl)c[n+]([O-])cc1Cl)c1ccc(OC(F)F)c(OCC2CC2)c1)[C@@H]1SCCN1C(=O)c1ccc(CN2CCOCC2)cc1` [Compound 39, 3,5-dichloro-4-((S)-2-(3-(cyclopropylmethoxy)-4-(difluoromethoxy)phenyl)-2-((S)-3-(4-(morpholinomethyl)benzoyl)thiazolidine-2-carbonyloxy)ethyl)pyridine 1-oxide]: 100 to 1000 pM; for `O=C(O)c1cccc(S(=O)(=O)N2CCSC2C(=O)O[C@@H](Cc2c(Cl)c[n+]([O-])cc2Cl)c2ccc(OC(F)F)c(OCC3CC3)c2)c1` (single isomer, unassigned) [Compound 75, 4-((S)-2-((S)-3-(3-carboxyphenylsulfonyl)thiazolidine-2-carbonyloxy)-2-(3-(cyclopropylmethoxy)-4-(difluoromethoxy)phenyl)ethyl)-3,5-dichloropyridine 1-oxide or 4-((S)-2-((R)-3-(3-carboxyphenylsulfonyl)thiazolidine-2-carbonyloxy)-2-(3-(cyclopropylmethoxy)-4-(difluoromethoxy)phenyl)ethyl)-3,5-dichloropyridine 1-oxide]: 100 to 1000 pM.
For the compound `CN(C)C(=O)c1cccc(S(=O)(=O)N2CCSC2C(=O)O[C@@H](Cc2c(Cl)c[n+]([O-])cc2Cl)c2ccc(OC(F)F)c(OCC3CC3)c2)c1` (stereo partly drawn) [Compound 56, 3,5-dichloro-4-((2S)-2-(3-(cyclopropylmethoxy)-4-(difluoromethoxy)phenyl)-2-(3-(3-(dimethylcarbamoyl)phenylsulfonyl)thiazolidine-2-carbonyloxy)ethyl)pyridine 1-oxide], the IC50 was less than 100 pM.
